Test results as given in patent US8815241B2, “Use of combination of anti-angiogenic substance and c-kit kinase inhibitor” (Eisai R&D Management Co., Ltd., priority 2005, dated 2014).

System: Human gastrointestinal stromal tumor cell line GIST882
Assay: Human cancer cell line subcutaneous xenograft model (GIST882 in nude mouse), combined use
Format: in vivo
Settings: once a day, for two weeks, orally
Experimental: Human gastrointestinal stromal tumor cell line GIST882 (supplied by The Brigham and Women's Hospital, Inc.) was cultured in RPMI1640 (containing 10% FBS) in a 5% carbon dioxide incubator to about 80% confluence. Following cultivation, each cell was collected by trypsin-EDTA treatment according to a general method. Using a phosphate buffer containing 50% matrigel, 5×10^7 cells/mL suspension was prepared, and 0.2 mL each of the resulting cell suspension was subcutaneously transplanted into the flank of a nude mouse. Starting from twenty-one days after the transplantation, 4-(3-chloro-4-(cyclopropylaminocarbonyl)aminophenoxy)-7-methoxy-6-quinolinecarboxamide (10 mg/kg or 30 mg/kg, once a day, for two weeks) and imatinib (160 mg/kg, twice a day, for two weeks) were orally administered alone or in combination. […] Tumor Volume (TV)=Major axis of tumor (mm)×(Minor axis of tumor)^2 (mm^2)/2 Relative Tumor Volume (RTV)=Tumor volume on measurement day/Tumor volume on the first administration day

COc1cc2nccc(Oc3ccc(NC(=O)NC4CC4)c(Cl)c3)c2cc1C(N)=O [Compound A, 4-(3-chloro-4-(cyclopropylaminocarbonyl)aminophenoxy)-7-methoxy-6-quinolinecarboxamide]
Relative tumor volume on Day 15, Average ± standard deviation (Compound A 10 mg/kg alone): 2.06 ± 0.16 | Relative tumor volume on Day 15, Average ± standard deviation (Compound A 30 mg/kg alone): 1.36 ± 0.13
